Common to all, as to type: functional
The test system of one assay is A549. In words: Concentration required for growth inhibition of human lung carcinoma cell line A549.
The test system of a further assay is HCT-116. In words: Concentration required for growth inhibition human of human colon cancer cell line HCT116.
The subject of a further assay is NCI-H460. The assay can be described thus: Concentration required for growth inhibition of human lung carcinoma cell line NCI-H460.

This passage reports GI50 results from ChEMBL document CHEMBL1136043, “Synthesis of (+)-Lasonolide A: (-)-lasonolide A is the biologically active enantiomer” (2002).

Bounds are passed on as bounds.

What is called GI50 is the concentration that inhibits growth by half. The low end stands for more potent growth inhibition, the high end for less potent growth inhibition. In the case of `C=C(CCC(C)C)COC(=O)[C@@H](O)C/C=C\C[C@H]1O[C@H]2/C=C/C/C=C/C(C)=C\[C@@H]3O[C@H](C/C=C/C=C/C(=O)O[C@@H](C2)[C@]1(C)CO)C[C@@H](O)[C@@H]3C`, the GI50 in the assay with A549 stood at 6000 nM; with HCT-116 it was 2000 nM; in the assay with NCI-H460 it was 3000 nM.
As for `C=C(CCC(C)C)COC(=O)[C@H](O)C/C=C/C[C@@H]1O[C@@H]2/C=C/C/C=C/C(C)=C\[C@H]3O[C@@H](C/C=C/C=C/C(=O)O[C@H](C2)[C@@]1(C)CO)C[C@H](O)[C@H]3C`, the GI50 in the assay with A549 came to 2000 nM; in the assay with HCT-116, 20 nM; in the assay with NCI-H460 it was 40 nM.
Turning to `C=C(CCC(C)C)COC(=O)[C@@H](O)C/C=C\C[C@@H]1O[C@@H]2/C=C\C/C=C/C(C)=C\[C@H]3O[C@@H](C/C=C/C=C/C(=O)O[C@H](C2)[C@@]1(C)CO)C[C@H](O)[C@H]3C`, the results for the GI50 with A549, in the assay with HCT-116 and in the assay on NCI-H460 were > 10000 nM, 5000 nM and 5000 nM, respectively.
Regarding `C=C(CCC(C)C)COC(=O)[C@@H](O)C/C=C\C[C@@H]1O[C@@H]2/C=C/C/C=C/C(C)=C\[C@H]3O[C@@H](C/C=C/C=C/C(=O)O[C@H](C2)[C@@]1(C)CO)C[C@H](O)[C@H]3C`, the GI50 was 50 nM with A549, < 3 nM in the assay on HCT-116 and 9 nM in the assay with NCI-H460.
Take `C=C(CCC(C)C)COC(=O)[C@@H](O)C/C=C/C[C@@H]1O[C@@H]2/C=C/C/C=C/C(C)=C\[C@H]3O[C@@H](C/C=C/C=C/C(=O)O[C@H](C2)[C@@]1(C)CO)C[C@H](O)[C@H]3C`: the values for the GI50 with A549, in the assay on HCT-116 and in the assay on NCI-H460 were 3200 nM, 40 nM and 100 nM, respectively.
On to `C=C(CCC(C)C)COC(=O)[C@H](O)C/C=C\C[C@@H]1O[C@@H]2/C=C/C/C=C/C(C)=C\[C@H]3O[C@@H](C/C=C/C=C/C(=O)O[C@H](C2)[C@@]1(C)CO)C[C@H](O)[C@H]3C` [LASONOLIDE A], for which the GI50 with A549 is 20 nM; with HCT-116, < 3 nM; in the assay on NCI-H460, < 3 nM.
